Earlier results as cited in patent publication US20090018020A1, “USE OF COMPOUNDS COMPRISING A POLYSACCHARIDE STRUCTURE AS BIOFERTILISER AND PHYTOSANITARY PRODUCTS” (CENTRE NATIONAL DE LA RECHERCHE SCIENTIFIQUE, priority 2002, published 2009).

Conditions: literature (Mc Dougall and Fry 1989, 1990)

Row | Substance | auxinic or antiauxinic effect
1 | XLLG | auxinic effect
2 | XXLG | auxinic effect
